# Laboratory results from patent publication US10954214B2 (Janssen Pharmaceutica NV, priority 2016, dated 2021).
# pIC50: −log10 of the molar value.
# Experiments:
# [1] = molecular target: full-length MALT1 protein (Strep-MALT1(1-824)-His) (Homo sapiens (Human), UniProt Q9UDY8); assay: MALT1 Biochemical Protease Assay (Ac-LRSR-AMC substrate); details: 10 nM FL MALT1, 200 μM Ac-LRSR-AMC, 4 h at RT; read-out: MALT1_Biochemical activity (Ac-LRSR-amc) IC50
# Procedure: The tetrapeptide LRSR is coupled to AMC (7-amino-4-methylcoumarin) and provides a quenched, fluorescent substrate for the MALT1 protease (SM Biochemicals). […] Test compound concentrations ranged from 30 μM to 0.5 nM using 11 dilution steps (1:3). Background signal was measured from control wells containing assay buffer without enzyme which functions as low control (LC). High control (HC) values were generated using the reaction with enzyme but no compound treatment. Compounds were pre-incubated with MALT1 enzyme for 50 minutes at RT. […] The reaction was subsequently incubated for 4 h at RT and fluorescence was measured.
# LC=Median of the low control values
# An estimate of the slope of the plot in terms of the Hill coefficient was also obtained. IC50 Calculation:
# [formula] With • UB=upper bound • LB=lower bound Used in “Lexis Dose Response Curve Fitting” Version 1.0.
# [2] = system: IL6 secretion by TMD8 ABC-DLBCL cells; assay: Human IL6 Mesoscale assay (TMD-8); assay type: cell-based; details: Homo sapiens, TMD8; TMD-8 cells, 24 h
# Procedure: (§1) NFKB signaling regulates the secretion of multiple cytokines, including IL6 and IL10. Secretion of the cytokines IL6 and IL10 by TMD8 or OCI-LY3 ABC-DLBCL cells was measured using a mesoscale assay. Inhibition of NFKB signaling by MALT1 or BTK inhibitors results in a decrease of IL6/10 secretion.
# (§2) TMD8 or OCI-LY3 cells were propagated in RPMI-1640 (Sigma Aldrich) supplemented with 10% fetal bovine serum (HyClone), 1 mM sodium pyruvate (Invitrogen), 2 mM L-glutamine (Sigma Aldrich) and 1% PenStrep (Sigma Aldrich). Cell passage number should not exceed 30. Cells should be kept between 0.5-2.5 million cells per mL during culturing and cells should be supplemented every 2-3 days with fresh 50 μM beta-mercaptoenthanol. No beta-mercaptoethanol was used during the mesoscale assay.
# (§3) For the Mesoscale assay, 100,000 TMD8 or OCI-LY3 cells were seeded per well into black-colored 96-well plates with clear bottom (Corning #3904) and test compounds were added in 9 dilution steps (1:2) ranging from 15 μM to 58.6 nM (final DMSO concentration 0.3%). DMSO control wells were used to determine the maximum signal (High Control (HC)). Treatment with the BTK inhibitor RN486 in a dose range from 30 nM to 131 pM (9 dilutions of 1:2) served as a positive control for NFKB pathway inhibition and was used to determine the maximum inhibition (Low Control (LC)). Compounds and cells were incubated for 24 h at 37° C. and 5% CO2 (assay volume is 150 μL). After 24 h of incubation 50 μL of the supernatant was transferred to a MSD plate (V-Plex Proinflammation Panel 1 (human) kit, Mesoscale (MSD)) and incubated for 2 h with vigorous shaking (600 rpm) at room temperature. Following incubation, plates were washed 3× with PBS+0.05% Tween-20 and 25 μL detection antibody solution (IL6 & IL10 antibodies in diluent 3 (MSD)) was added per well followed by 2 h of incubation with vigorous shaking (600 rpm) at room temperature. After 3× washes with PBS+0.05% Tween-20, plates were incubated with 150 μL 2× Read Buffer T and read on SECTOR imager.
# [3] = system: IL10 secretion by TMD8 ABC-DLBCL cells; assay: Human IL10 Mesoscale assay (TMD-8); assay type: cell-based; details: Homo sapiens, TMD8; TMD-8 cells, 24 h
# Procedure: as §1, §2, §3
# Sequence of full-length MALT1 protein (Strep-MALT1(1-824)-His) (Q9UDY8 whole entry): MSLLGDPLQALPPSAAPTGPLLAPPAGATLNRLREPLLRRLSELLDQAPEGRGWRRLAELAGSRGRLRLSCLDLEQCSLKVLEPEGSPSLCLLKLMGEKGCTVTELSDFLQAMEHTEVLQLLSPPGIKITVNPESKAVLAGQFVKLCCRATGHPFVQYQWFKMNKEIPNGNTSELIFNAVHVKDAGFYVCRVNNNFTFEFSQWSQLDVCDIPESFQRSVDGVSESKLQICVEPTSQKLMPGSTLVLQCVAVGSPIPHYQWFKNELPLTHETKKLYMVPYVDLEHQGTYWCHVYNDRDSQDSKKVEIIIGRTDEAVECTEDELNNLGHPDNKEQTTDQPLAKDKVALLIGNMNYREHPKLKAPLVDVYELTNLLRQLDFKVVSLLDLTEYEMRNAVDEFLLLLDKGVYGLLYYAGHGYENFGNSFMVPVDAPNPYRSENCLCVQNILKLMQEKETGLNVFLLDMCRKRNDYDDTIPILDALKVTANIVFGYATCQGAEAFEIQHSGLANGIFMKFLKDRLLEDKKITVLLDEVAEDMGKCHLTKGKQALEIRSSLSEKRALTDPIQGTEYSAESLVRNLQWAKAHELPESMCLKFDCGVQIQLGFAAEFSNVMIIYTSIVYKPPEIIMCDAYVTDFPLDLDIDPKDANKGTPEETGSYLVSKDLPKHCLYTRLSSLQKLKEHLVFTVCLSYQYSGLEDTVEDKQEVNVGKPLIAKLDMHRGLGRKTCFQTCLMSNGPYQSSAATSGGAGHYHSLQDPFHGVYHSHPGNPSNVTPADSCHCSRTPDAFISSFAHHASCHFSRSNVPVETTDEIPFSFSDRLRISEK
pIC50 [1],pIC50 [2],pIC50 [3],SMILES
7.89,7.04,7.22,"Cc1nc(-n2nccn2)c(Cl)cc1NC(=O)c1cnn(-c2cnc(Cl)c3sccc23)c1C(F)(F)F [Cpd 426, N-(5-chloro-2-methyl-6-(2H-1,2,3-triazol-2-yl)pyridin-3-yl)-1-(7-chlorothieno[2,3-c]pyridin-4-yl)-5-(trifluoromethyl)-1H-pyrazole-4-carboxamide]"
5.70,6.90,7.27,"NC(=O)c1ccc2c(-n3ncc(C(=O)Nc4cnc(-n5nccn5)c(Cl)c4)c3C(F)(F)F)cccc2n1 [Cpd 388, 5-(4-((5-chloro-6-(2H-1,2,3-triazol-2-yl)pyridin-3-yl)carbamoyl)-5-(trifluoromethyl)-1H-pyrazol-1-yl)quinoline-2-carboxamide]"
5.80,6.73,6.79,"O=C(Nc1cnc(-n2nccn2)c(Cl)c1)c1cnn(-c2cccc3nc([C@H]4CCCO4)ccc23)c1C(F)(F)F (single isomer, unassigned) [Cpd 440, (*R)—N-(5-chloro-6-(2H-1,2,3-triazol-2-yl)pyridin-3-yl)-1-(2-(tetrahydrofuran-2-yl)quinolin-5-yl)-5-(trifluoromethyl)-1H-pyrazole-4-carboxamide]"
6.90,5.26,5.62,"N#Cc1cc(NC(=O)c2cnn(-c3cccc4ncccc34)c2C(F)(F)F)cnc1-n1cccc1 [Cpd 280, N-(5-cyano-6-(1H-pyrrol-1-yl)pyridin-3-yl)-1-(quinolin-5-yl)-5-(trifluoromethyl)-1H-pyrazole-4-carboxamide]"
5.77,6.12,5.93,"N#Cc1cc(NC(=O)c2cnn(-c3ccnc4ccncc34)c2C(F)(F)F)cnc1-n1nccn1 [Cpd 223, N-(5-cyano-6-(2H-1,2,3-triazol-2-yl)pyridin-3-yl)-1-(1,6-naphthyridin-4-yl)-5-(trifluoromethyl)-1H-pyrazole-4-carboxamide]"
5.89,5.46,5.93,"O=C(Nc1cnc(N2CCCC2=O)c(Cl)c1)c1cnn(-c2cncc3ccccc23)c1C(F)(F)F [Cpd 107, N-(5-chloro-6-(2-oxopyrrolidin-1-yl)pyridin-3-yl)-1-(isoquinolin-4-yl)-5-(trifluoromethyl)-1H-pyrazole-4-carboxamide]"
5.46,7.14,7.55,"O=C(Nc1cnc(-n2nccn2)c(Cl)c1)c1cnn(-c2cccc3nc(C(F)F)ccc23)c1C(F)(F)F [Cpd 395, N-(5-chloro-6-(2H-1,2,3-triazol-2-yl)pyridin-3-yl)-1-(2-(difluoromethyl)quinolin-5-yl)-5-(trifluoromethyl)-1H-pyrazole-4-carboxamide]"
7.22,6.35,6.30,"N#Cc1cc(NC(=O)c2cnn(-c3cnnc4ccccc34)c2C(F)(F)F)cnc1-n1nccn1 [Cpd 93, 1-(Cinnolin-4-yl)-N-(5-cyano-6-(2H-1,2,3-triazol-2-yl)pyridin-3-yl)-5-(trifluoromethyl)-1H-pyrazole-4-carboxamide]"
5.78,6.24,6.08,"CN1CCN(c2ncc(NC(=O)c3cnn(-c4cccc5ncccc45)c3C(F)(F)F)cc2C#N)CC1 [Cpd 224, N-(5-cyano-6-(4-methylpiperazin-1-yl)pyridin-3-yl)-1-(quinolin-5-yl)-5-(trifluoromethyl)-1H-pyrazole-4-carboxamide]"
6.69,< 4.82,< 4.82,"O=C(Nc1cnc(-c2ncc[nH]2)c(Cl)c1)c1cnn(-c2cncc3ccccc23)c1C(F)(F)F [Cpd 104, N-(5-chloro-6-(1H-imidazol-2-yl)pyridin-3-yl)-1-(isoquinolin-4-yl)-5-(trifluoromethyl)-1H-pyrazole-4-carboxamide]"
6.17,6.56,6.74,"N#Cc1cc(NC(=O)c2cnn(-c3cccc4ncccc34)c2C(F)(F)F)ccc1C(=O)O [Cpd 237, 2-cyano-4-(1-(quinolin-5-yl)-5-(trifluoromethyl)-1H-pyrazole-4-carboxamido)benzoic acid]"
5.76,5.21,5.41,"Cc1cn2c(-n3ncc(C(=O)Nc4ccnc(C(F)(F)F)c4)c3C(F)(F)F)cccc2n1 [Cpd 206, 1-(2-methylimidazo[1,2-a]pyridin-5-yl)-5-(trifluoromethyl)-N-(2-(trifluoromethyl)pyridin-4-yl)-1H-pyrazole-4-carboxamide]"
7.46,5.78,5.64,"Cc1cnc2cccc(-n3ncc(C(=O)Nc4cnc(-n5nccn5)c(Cl)c4)c3C(F)(F)F)n12 [Cpd 211, N-(5-chloro-6-(2H-1,2,3-triazol-2-yl)pyridin-3-yl)-1-(3-methylimidazo[1,2-a]pyridin-5-yl)-5-(trifluoromethyl)-1H-pyrazole-4-carboxamide]"
5.77,5.48,6.24,"O=C(Nc1cnc(-n2nccn2)c(Cl)c1)c1cnn(-c2ncnc3[nH]ncc23)c1C(F)(F)F [Cpd 222, N-(5-chloro-6-(2H-1,2,3-triazol-2-yl)pyridin-3-yl)-1-(1H-pyrazolo[3,4-d]pyrimidin-4-yl)-5-(trifluoromethyl)-1H-pyrazole-4-carboxamide]"
6.30,7.68,7.82,"O=C(Nc1cnc(-n2nccn2)c(Cl)c1)c1cnn(-c2cnc(C3CCN3)c3ccccc23)c1C(F)(F)F (stereo not drawn) [Cpd 379, 1-(1-(azetidin-2-yl)isoquinolin-4-yl)-N-(5-chloro-6-(2H-1,2,3-triazol-2-yl)pyridin-3-yl)-5-(trifluoromethyl)-1H-pyrazole-4-carboxamide]"
7.72,7.05,6.98,"N#Cc1cc(NC(=O)c2cnn(-c3nccc4occc34)c2C(F)(F)F)cnc1-n1nccn1 [Cpd 94, N-(5-cyano-6-(2H-1,2,3-triazol-2-yl)pyridin-3-yl)-1-(furo[3,2-c]pyridin-4-yl)-5-(trifluoromethyl)-1H-pyrazole-4-carboxamide]"
7.96,6.26,6.62,"COc1ncc(NC(=O)c2cnn(-c3cccc4c(=O)[nH]ccc34)c2C(F)(F)F)cc1C#N [Cpd 428, N-(5-cyano-6-methoxypyridin-3-yl)-1-(1-oxo-1,2-dihydroisoquinolin-5-yl)-5-(trifluoromethyl)-1H-pyrazole-4-carboxamide]"
7.25,6.48,6.88,"O=C(Nc1cnc(-n2nccn2)c(Cl)c1)c1cnn(-c2cc(C(F)F)nc3ccccc23)c1C(F)(F)F [Cpd 401, N-(5-chloro-6-(2H-1,2,3-triazol-2-yl)pyridin-3-yl)-1-(2-(difluoromethyl)quinolin-4-yl)-5-(trifluoromethyl)-1H-pyrazole-4-carboxamide]"
6.07,6.58,6.85,"O=C(O)c1cn(-c2ncc(NC(=O)c3cnn(-c4cccc5ncccc45)c3C(F)(F)F)cc2Cl)nn1 [Cpd 234, 1-(3-chloro-5-(1-(quinolin-5-yl)-5-(trifluoromethyl)-1H-pyrazole-4-carboxamido)pyridin-2-yl)-1H-1,2,3-triazole-4-carboxylic acid]"
